Source: patent US20080269343A1, “GALENIC FORMULATIONS OF ORGANIC COMPOUNDS” (priority 2004, published 2008)
Like-named read-outs stand apart in the source and are kept apart here.

Legend:
[1] = Single and multiple dose 300 mg pharmacokinetic study in Japanese and Caucasian healthy male subjects (Example 5); format: in vivo, human; details: for Cavg^SS / AUC(0-t) / Cmax / AUC: arithmetic mean (SD); for Tmax / AUC(0-t) / Cmax / AUC: male, human, plasma, oral, 300 mg; for Tmax: Median (minimum-maximum); for AUC(0-t): read-out: AUC0-72; for AUC: read-out: AUC0-τ
Procedure: An open label, non-randomized, single center, parallel group single and multiple dose study in healthy male subjects was carried out. Two parallel groups, one Japanese (n=19), the other Caucasian (n=19), age (±5 years) and weight matched (±25%), were enrolled in this study. Each subject participated in a 21-day screening period, a baseline period (Day −1), a 10 day treatment period (Days 1-10) and a study completion evaluation 4-7 days after the last PK sample. Each subject received a single 300 mg oral dose of aliskiren (dosage form 3) on Day 1 with 72 hour PK sampling, followed by multiple (once a day for 7 days) 300 mg oral doses of aliskiren on Days 4 through to 10. All administrations of aliskiren were given following a 10 hour fast. Subjects were domiciled in the study center from Day −1 (baseline) until the 24 hour post last-dose evaluations were completed oh Day 11.
Blood samples were collected to determine the pharmacokinetics following a single oral dose of 300 mg of aliskiren and multiple doses (once daily) of aliskiren 300 mg. Plasma concentrations of aliskiren were used to determine the pharmacokinetic parameters using non-compartmental methods, and the data are summarized in FIGS. 5 and 6, and Tables 4 and 5.

[2] = Hygroscopicity of the drug substance; format: physicochemical
[3] = Steady-state pharmacokinetics of aliskiren 300 mg alone, hydrochlorothiazide interaction study, Day 15 (Example 7); format: in vivo, human; details: 300 mg daily, Day 15, healthy volunteers N 22; for AUC / Cmax / Tmax: both sexes, human, in vivo, oral, 300 mg
Procedure: The study employed was an open-label, two-period, multiple dose design to evaluate the pharmacokinetic drug-drug interaction between hydrochlorothiazide (HCTZ) and aliskiren when given alone or in combination to healthy volunteers. After screening, a total of 22 healthy male and female volunteers were enrolled into the study. The subjects were admitted to the study center at least 12 hours prior to the initial dosing of HCTZ for baseline evaluation. If subjects met all eligibility criteria at baseline, they were randomized into the study and confined to the clinic until study completion. All study medications were taken under fasted conditions. The subjects remained in bed for at least 4 hours after dosing on PK sampling days. The study was completed with the end of study evaluations on Day 20, after the last blood sample was collected.
In period 1 (study Days 1-4), subjects received a single 25 mg daily dose of HCTZ. Period 1 was followed by a 4 day washout period, study Days 5-8. In period 2 (study Days 9-19), subjects received 300 mg of aliskiren once a day for a total of 11 days (Days 9-19), with a single 25 mg dose of HCTZ co-administered for 4 days (Days 16-19).
Pharmacokinetic blood sampling for aliskiren alone occurred on study Day 15 up to 24 hours post-dose (5-mL blood samples were collected into lithium heparin tubes on Day 15 of the study at pre-dose, 0.5, 1, 2, 3, 4, 6, 8, 12, 16 and 24 hours after dosing).

[4] = Steady-state pharmacokinetics of aliskiren 300 mg alone, digoxin interaction study, Day 7 (Example 8); format: in vivo, human; details: 300 mg daily, Day 7, healthy volunteers N 21; for AUC / Cmax / Tmax: human, in vivo, oral, 300 mg
Procedure: The study employed was an open-label, two-period, multiple-dose design to evaluate the pharmacokinetic drug-drug interaction between digoxin and aliskiren when given alone or in combination to healthy volunteers. A total of 22 healthy volunteers were enrolled into the study. The subjects were admitted to the study center at least 24 hours prior to the initial dosing of aliskiren for baseline evaluation. If subjects met all eligibility criteria at baseline, they were randomized into the study and confined to the clinic on days 1-7 and days 17-33. All study medications were taken under fasted condition. The study was completed with the end of study evaluations on Day 34, after the last blood sample was collected.
In period 1 (Days 1-7), subjects received a single 300 mg daily dose of aliskiren for 7 days. Period 1 was followed by a ten (10) day washout period. In period 2, subjects received a single 0.25 mg daily dose of digoxin for 9 days (Days 18-26) and aliskiren 300 mg once a day with a single 0.25 mg daily dose of digoxin co-administered for 7 days (Days 27-33).
Pharmacokinetic blood sampling for aliskiren alone occurred on Day 7 up to 24 hours post dose (5-mL blood samples were collected into lithium heparin tubes on Day 7 of the study at pre-dose, 0.5, 1, 2, 3, 4, 6, 8, 12, 16 and 24 hours after dosing).

[5] = steady state, 300 mg once a day, Caucasian subjects
[6] = steady state, 300 mg once a day, Japanese subjects

- Cavg^SS [1, 5]: 89 (33) ng/mL
- Cavg^SS [1, 6]: 105 (49) ng/mL
- Tmax ([1]; single dose 300 mg, Caucasian subjects n=19, fasted, read-out: Tmax): 2 h
- Tmax ([1]; single dose 300 mg, Japanese subjects n=19, fasted, read-out: Tmax): 2 h
- Tmax ([1]; steady state, 300 mg once a day, Caucasian subjects, read-out: Tmax^SS): 2 h
- Tmax ([1]; steady state, 300 mg once a day, Japanese subjects, read-out: Tmax^SS): 4 h
- AUC(0-t) ([1]; single dose 300 mg, Caucasian subjects n=19): 1120 ng·h/mL
- Cmax ([1]; single dose 300 mg, Caucasian subjects n=19, read-out: Cmax): 186 ng/mL
- AUC(0-t) ([1]; single dose 300 mg, Japanese subjects n=19): 1390 ng·h/mL
- Cmax ([1]; single dose 300 mg, Japanese subjects n=19, read-out: Cmax): 215 ng/mL
- AUC [1, 5]: 2140 ng·h/mL
- Cmax ([1]; steady state, 300 mg once a day, Caucasian subjects, read-out: Cmax^SS): 321 ng/mL
- AUC [1, 6]: 2520 ng·h/mL
- Cmax ([1]; steady state, 300 mg once a day, Japanese subjects, read-out: Cmax^SS): 403 ng/mL
- hygroscopicity [2]: highly hygroscopic
- Cmin^SS ([3]; Geometric Mean): 32.5 ng/mL
- AUCτ ([3]; Max): 3801 ng·h/mL
- Cmax^SS ([3]; Max): 872.0 ng/mL
- Cmin^SS ([3]; Max): 56.5 ng/mL
- tmax^SS ([3]; Max): 6.00 h
- Cmin^SS ([3]; Median): 35.4 ng/mL
- AUCτ ([3]; Min): 512 ng·h/mL
- Cmax^SS ([3]; Min): 27.3 ng/mL
- Cmin^SS ([3]; Min): 13.4 ng/mL
- tmax^SS ([3]; Min): 0.50 h
- Cmin^SS ([3]; arithmetic mean): 35.0 ng/mL
- AUC ([3]; Geometric Mean): 2070 ng·h/mL
- Cmax ([3]; Geometric Mean): 354 ng/mL
- Tmax ([3]; Geometric Mean): 1.84 h
- AUC ([3]; Median): 2320 ng·h/mL
- Cmax ([3]; Median): 406 ng/mL
- Tmax ([3]; Median): 2.24 h
- AUC ([3]; arithmetic mean): 2310 ng·h/mL
- Cmax ([3]; arithmetic mean): 425 ng/mL
- Tmax ([3]; arithmetic mean): 2.23 h
- Cmin^SS ([4]; Geometric Mean): 25.4 ng/mL
- AUCτ ([4]; Max): 2710 ng·h/mL
- Cmax^SS ([4]; Max): 478 ng/mL
- Cmin^SS ([4]; Max): 41.5 ng/mL
- tmax^SS ([4]; Max): 6.00 h
- Cmin^SS ([4]; Median): 24.1 ng/mL
- AUCτ ([4]; Min): 943 ng·h/mL
- Cmax^SS ([4]; Min): 131 ng/mL
- Cmin^SS ([4]; Min): 13.1 ng/mL
- tmax^SS ([4]; Min): 0.50 h
- Cmin^SS ([4]; arithmetic mean): 26.5 ng/mL
- AUC ([4]; Geometric Mean): 1600 ng·h/mL
- Cmax ([4]; Geometric Mean): 246 ng/mL
- Tmax ([4]; Geometric Mean): 1.39 h
- AUC ([4]; Median): 1560 ng·h/mL
- Cmax ([4]; Median): 234 ng/mL
- Tmax ([4]; Median): 1 h
- AUC ([4]; arithmetic mean): 1670 ng·h/mL
- Cmax ([4]; arithmetic mean): 261 ng/mL
- Tmax ([4]; arithmetic mean): 1.93 h
SMILES: COCCCOc1cc(C[C@@H](C[C@H](N)[C@@H](O)C[C@H](C(=O)NCC(C)(C)C(N)=O)C(C)C)C(C)C)ccc1OC [aliskiren, 2(S),4(S),5(S),7(S)—N-(3-amino-2,2-dimethyl-3-oxopropyl)-2,7-di(1-methylethyl)-4-hydroxy-5-amino-8-[4-methoxy-3-(3-methoxy-propoxy)phenyl]-octanamide]
